We go through four compounds from patent publication US20080057136A1, “Disinfecting Composition and Methods of Making and Using Same” (priority 2003, published 2008).

Converted amounts (≈) assume the structure as drawn. Like-named read-outs stand apart in the source and are kept apart here.

Series [1] has as its system dermatophyte infections. Conditions: dermatophyte infections in animals; cited from earlier work.
Series [2] has as its system S. aureus ATCC 25923. Put plainly: NCCLS broth microdilution MIC and MBC (Example 10). The format is cell-based, Staphylococcus aureus. (In general: In broth dilution the organism is exposed to a series of concentrations in liquid medium.)
Experimental: (§4) Strains of E. coli (ATCC 11229), D. aeruginosa (ATCC 15442), S. aureus (ATCC 25923), S. epidermidis (ATCC 12228), S. pyogenes (ATCC 19615), C. albicans (ATCC 10231), and T. rubrum (ATCC 28188) were used as “challenge microorganisms” in this study. Strains were removed from frozen stock and subcultured twice on blood agar to ensure that the strains had optimal growth and metabolic status before testing.
(§5) Hibiclens (industry comparator) and ciprofloxacin were added to the bacterial panel. Amphotericin B, fluconazole, and Hibiclens were added as comparative agents in the fungal panels.
(§6) For testing purposes, AMC, AMC components, and Hibiclens were diluted to 50% of the working solution to cover the proposed AMC use dilution of 20%.
(§7) Microtiter panels were created on the day of MIC testing. A 50 μl aliquot of Mueller-Hinton broth (for bacterial strains) or RPMI 1640 (for fungal strains) was delivered to each well, except those in column one of the microtiter panel. The working solution of AMC and each of its components, and comparative agents were delivered to the designated wells in column one. AMC, components, and comparators were serially diluted across the panel. A 50 μl aliquot of bacterial or fungal suspension was then added to each well on the microtiter panel, using a new pipette tip for each aliquot. Panels were incubated at 35° C. for 16-20 h for the E. coli, P. aeruginosa, and S. aureus strains, 20-24 h for the S. pyogenes strain, and 48 h for the C. albicans strain.
(§8) The 10 μl samples were plated on to blood agar and incubated at 35° C. for 24 h (E. coli and P. aeruginosa) or 48 h (S. aureus, S. epidermidis, and S. pyogenes). After incubation, colony counts for each panel well plated were recorded.
(§9) The MIC % is expressed as g/100 ml or ml/100 ml. […] The MBC % is expressed as g/100 ml or ml/100 ml.
For series [3] the following is noted: component at 100%; cited from earlier work.
Series [4] is described as follows: Acute oral toxicity, rat. Conditions: rat, in vivo, po.
In series [5] the test system is S. pyogenes ATCC 19615. The series can be described thus: NCCLS broth microdilution MIC and MBC (Example 10). The format is cell-based, Streptococcus pyogenes.
Experimental: as §4, §5, §6, §7, §8, §9
The nature of series [6]: Acute dermal toxicity, rabbit. The settings on record: rabbit, in vivo, topical or ocular.
The subject of series [7] is P. aeruginosa ATCC 15442. Put plainly: NCCLS broth microdilution MIC and MBC (Example 10). The format is cell-based, Pseudomonas aeruginosa.
Experimental: as §4, §5, §6, §7, §8, §9
For series [8], the system named is S. epidermidis ATCC 12228. Put plainly: NCCLS broth microdilution MIC and MBC (Example 10). In kind it is cell-based, Staphylococcus epidermidis.
Experimental: as §4, §5, §6, §7, §8, §9
The conditions of series [9]: component at 100%; cited from earlier work. This is another data set of the same source.
The test system of series [10] is Trichophyton rubrum (ATCC 28188). Put plainly: Time-Kill test (Example 9). Conditions: Table 25, first value column. The format is cell-based.
Experimental: A panel of “challenge microorganisms,” including select bacteria, yeast, and fungi was used to assess the disinfecting properties of test compounds, e.g., AMC (DPT Laboratories). […] The procedure was based on the ASTM procedure entitled, “Standard Test Method for the Assessment of Microbial Activity of Test Materials Using Time-Kill Procedure.”
A single lot of test material was prepared at various concentrations, along with multiple compounds prepared in various concentrations and combinations. These test materials were tested in duplicate against various bacteria, yeast and fungi. To minimize potential buffer interference and to minimize reduction of antimicrobial activity, the volume of the inoculum added to the test material was maintained at, or below, 1% of the total volume of the test. Samples were removed at various contact times. Serial dilutions were performed, and duplicate aliquots were plated. The plates were then incubated, and the average colony forming units (CFU) recovered per milliliter were determined for each contact time. The contact times for the test compounds with S. aureus, E. coli, P. aeruginosa, and C. albicans were 30 sec, 1 min, and 5 min. The contact times for the test compounds with B. subtilis were 1 and 10 min, 1 h, 2 h, 3 h, and 24 h. The contact times for the test compounds with T. rubrum were 30 sec, 1 min and 10 min. The contact temperature was ambient room temperature (20-21° C.).
The fungus, T. rubrum, was inoculated onto Emmon's agar (EA) and incubated at 25-30° C. for 10-15 days. The mycelial mats from mature cultures were removed from the surface of at least 5 plates and macerated with sterile saline (SS) in a sterile glass tissue grinder. The suspension was filtered through sterile glass wool to remove the hyphae.
The density of the conidial suspension was determined by serially diluting the prepared culture in BPDW. Aliquots from selected dilutions were plated on duplicate EA plates. The plates were incubated for 3-5 days at 25-30° C. and then each plate was examined for enumeration.
The suspension was stored at 2-10° C. for 4 weeks before use. On the day of testing, the suspension was adjusted to yield approximately 5.0×10^8 CFU by dilution with BPDW.
Compliant with the ASTM procedure cited above, the challenge microorganism was added to the test material by dispensing 99 ml of the test material into two sterile flasks, each containing a stir bar. The reaction flasks were allowed to equilibrate to the test temperature for at least 10 minutes. The flasks were placed in water baths on stir plates and maintained at the test temperature with stirring. A 1 ml aliquot of the prepared inoculum of the challenge microorganism was added to each flask to begin the contact period. At each contact time, 1 ml aliquot samples were removed and added to tubes containing 9 ml PBDW+. Serial 10-fold dilutions of each sample were then prepared in PBDW dilution blanks. Duplicate aliquots from selected dilutions were plated using the appropriate agar.
Upon completion of all contact periods, all plates were inverted and incubated for the appropriate time and temperature as follows: bacteria and yeast were incubated over 2 nights at 37° C.±2° C., and the fungus was incubated for at least 5 nights at 25-30° C. Following incubation, all plates were removed, the colonies were counted and the CFU recovered per ml at each contact time were calculated.
The test system of series [11] is T. rubrum ATCC 28188. The series can be described thus: NCCLS broth microdilution MIC and MFC (Example 11). In kind it is cell-based, Trichophyton rubrum.
Experimental: (§10) Strains of C. albicans (ATCC 10231) and T. rubrum (ATCC 28188) were tested in this study. Strains were removed from frozen stock and subcultured twice on blood agar to ensure that the strains had optimal growth and metabolic status before testing. Strains were tested by NCCLS broth microdilution (M27-A2, 2002) and challenged with AMC solution and its individual components […] ), and isopropanol. Amphotericin B, fluconazole, terbinafine, and Hibiclens were added as comparator compounds. […] Microtiter panels were created on the day of MIC testing. A 50 μl aliquot of RPMI 1640 was delivered to each well except those in column one of the microtiter panel. The working solution of AMC and each of its components, and comparative agents were delivered to the designated wells in column one; AMC, components, and comparators were serially diluted across the panel. A 50 μl aliquot of fungal suspension was then added to each well on the microtiter panel, using a new pipette tip for each aliquot. […] For amphotericin B, the endpoint was read as the complete inhibition of growth. […] MFCs were performed to determine the concentration at which ≧99% of the starting fungal inoculum was killed. […] After incubation, colony counts for each panel well plated were recorded. […] The endpoint for amphotericin B was read as complete inhibition of growth.
Series [12] concerns T. rubrum ATCC 28188. The series can be described thus: NCCLS broth microdilution MIC and MFC (Example 10). The format is cell-based, Trichophyton rubrum.
Experimental: as §4
(§11) Amphotericin B, fluconazole, and Hibiclens were added as comparative agents in the fungal panels.
as §6
(§12) Microtiter panels were created on the day of MIC testing. A 50 μl aliquot of Mueller-Hinton broth (for bacterial strains) or RPMI 1640 (for fungal strains) was delivered to each well, except those in column one of the microtiter panel. The working solution of AMC and each of its components, and comparative agents were delivered to the designated wells in column one. AMC, components, and comparators were serially diluted across the panel. A 50 μl aliquot of bacterial or fungal suspension was then added to each well on the microtiter panel, using a new pipette tip for each aliquot. Panels were incubated at 35° C. for 16-20 h for the E. coli, P. aeruginosa, and S. aureus strains, 20-24 h for the S. pyogenes strain, and 48 h for the C. albicans strain. T. rubrum panels were incubated for 3 to 4 days before MICs were read. […] Fungal MICs (%) were read using an 80% reduction in the growth endpoint relative to the turbidity of the growth control for AMC, its components, and fluconazole. For amphotericin B, the endpoint was read as the complete inhibition of growth.
(§13) MFCs were determined in a similar manner.
(§14) The endpoint for amphotericin B was read as complete inhibition of growth. The MIC % is expressed as g/100 ml or ml/100 ml. […] The MFC % is expressed as g/100 ml or ml/100 ml.
A short description of series [13]: Acute inhalation toxicity, rat. Conditions: rat, in vivo, inhaled.
Series [14] relates to Staphylococcus aureus (ATCC 25923). The series can be described thus: Time-Kill test (Example 9). In kind it is cell-based. Conditions: Study 509-101; at 30 seconds. As for the experimental part: A panel of “challenge microorganisms,” including select bacteria, yeast, and fungi was used to assess the disinfecting properties of test compounds, e.g., AMC (DPT Laboratories). Specifically, the disinfectant property of test compounds were tested against Staphylococcus aureus (ATCC 25923); Staphylococcus epidermidis (ATCC 12228); Bacillus subtilis (ATCC 19659); Escherichia coli (ATCC 11229); and Pseudomonas aeruginosa (ATCC 15442) bacteria, as well as the yeast Candida albicans (ATCC 10231), and the fungus Trichophyton rubrum (ATCC 28188). The test procedure incorporated the recommendations described in the “Manual of Clinical Microbiology,” 5th ed., edited by A. B. Balows et al., ASM, Washington, as directed by the Federal Register, June 1994. […]
A single lot of test material was prepared at various concentrations, along with multiple compounds prepared in various concentrations and combinations. […] The plates were then incubated, and the average colony forming units (CFU) recovered per milliliter were determined for each contact time. […]
Bacteria and C. albicans from stock cultures were transferred into trypticase soya broth (TSB) and incubated for 18-24 hours at 37° C.±2° C. […] The microbe concentration was measured using a spectrophotometric technique well-known in the art. […]

Series [15] has as its system T. rubrum. The series can be described thus: MIC and MBC determination by doubling dilutions (Study 509-102). The format is cell-based, Trichophyton rubrum. The settings on record: Trichophyton rubrum; Study 509-102; Inoculum Counts: 3.6 × 10^8. From the text: (§1) Table 2 below indicates the stock dilutions for each test agent, and a breakdown of the resulting concentrations for each of the doubling dilutions performed is summarized in Table 3.
(§2) From the stock dilutions, an initial 1:10 dilution was made (representing tube 1), followed by doubling dilutions (tubes 2-12), as detailed in Table 3.

Series [16] concerns E. coli ATCC 11229. Put plainly: NCCLS broth microdilution MIC and MBC (Example 10). The format is cell-based, Escherichia coli.
Experimental: as §4, §5, §6, §7, §8, §9
Series [17] concerns S. epidermidis. The series can be described thus: MIC and MBC determination by doubling dilutions (Study 509-102). In kind it is cell-based. Conditions: Staphylococcus epidermidis, Inoculum Counts: 9.0 × 10^5.
From the text: as §1, §2

Series [18] deals with C. albicans. The series is described as above. The settings on record: Candida albicans, Inoculum Counts: 6.6 × 10^5. The format is cell-based.
From the text: as §1, §2

Series [19] relates to Escherichia coli. The description is as above. The format is cell-based. Conditions: Inoculum Counts: 9.4 × 10^5.
From the text: as §1, §2

The subject of series [20] is Pseudomonas aeruginosa. The description is as above. The format is cell-based. The settings on record: Inoculum Counts: 8.8 × 10^5.
From the text: as §1, §2

The subject of series [21] is S. pyogenes. The series is described as above. In kind it is cell-based. The settings on record: Streptococcus pyogenes, Inoculum Counts: 9.8 × 10^5.
From the text: as §1, §2

Series [22] relates to Staphylococcus aureus. The description is as above. The format is cell-based. Conditions: Inoculum Counts: 7.5 × 10^6.
From the text: as §1, §2

In series [23] the test system is C. albicans ATCC 10231. The series can be described thus: NCCLS broth microdilution MIC and MFC (Example 11). The format is cell-based, Candida albicans.
Experimental: as §10
Series [24] relates to E. coli (strain 1257). The series can be described thus: Time-kill test, initial studies (death time). The format is cell-based, Escherichia coli. The text has this:
(§3) Time-kill tests were used to measure the disinfecting property of test compounds, e.g., microbiocidal or sporicidal compositions, using select bacterial challenge microorganisms such as the vegetative forms of, e.g., E. coli (strain 1257) S. aureus (strain 906), and Bacillus cereus (strain 96).

Series [25] deals with C. albicans ATCC 10231. Put plainly: NCCLS broth microdilution MIC and MFC (Example 10). In kind it is cell-based, Candida albicans.
Experimental: as §4, §11, §6, §12, §13, §14
For series [26], the system named is S. aureus (strain 906). Put plainly: Time-kill test, initial studies (death time). In kind it is cell-based, Staphylococcus aureus.
From the text: as §3

Where [27] appears, read: Example 10, % as g/100 ml or ml/100 ml.
Setting [28] is: Example 10, 99.9% inhibition of growth.
Where [29] appears, read: Example 10, MBC within one doubling dilution of the MIC.
The mark [30] stands for this setting: 80% reduction in growth endpoint.

Regarding `CC(C)N1CCN(c2ccc(N3CCN(c4ccc(OC[C@H]5OC[C@](Cn6cncn6)(c6ccc(F)cc6F)O5)cc4)CC3)cc2)C1=O` [Azoline], the “activity relative to itraconazole” value in [1] is 5 times.
As for `CCCCCCCCCCCCCCCC[n+]1ccccc1` [CPC, Cetyl Pyridinium Chloride], the “MBC, %” value in [2] (setting [27]) is on record as “<=0.0007%”; in series [5] (setting [27]), “<=0.0007%”; in [7] (setting [27]) it was 0.04%. In addition, the MBC is at most 7 µg/mL in series [2] (Staphylococcus aureus, ATCC25923); at most 7 µg/mL in [5] (Streptococcus pyogenes, ATCC19615); 400 µg/mL in series [7] (Pseudomonas aeruginosa, ATCC15442). The “Rabbit Dermal LD50” value in series [3] is given as >2,000 mg/Kg. The LD50 in series [4] is 20000 mg/kg; in series [6], over 20000 mg/kg. Besides, the “MCB (μg/ml)” value in series [8] is “(<=7) μg/ml”. Besides, the “MCB, %” value in [8] (% as g/100 ml or ml/100 ml) is given as “<=0.0007%”. For the same compound, the “Rat Inhalation LC50” value in series [9] was 0.090 µg/mL. For the same compound, in series [10], the “30-Second Log Reduction from Initial T. rubrum CFU Values” is on record as 3.4 Logs. Also, the “MFC, %” value in series [11] (Example 11) and in series [12] (setting [28]) was at most 0.0007% throughout. For the same compound, the MFC was at most 7 µg/mL in [11] (Trichophyton rubrum, ATCC28188) and at most 7 µg/mL in series [12] (Trichophyton rubrum, ATCC28188). The median lethal concentration (LC50) in series [13] came to 9 µg/mL. Further, the “reduction of S. aureus count” value in [14] was 2 log10.
For `O=C(O)c1cn(C2CC2)c2cc(N3CCNCC3)c(F)cc2c1=O` [Ciprofloxacin], the MBC in series [15] is over 0.1 µg/mL; in series [2] (Staphylococcus aureus, ATCC25923, Example 10, read-out: MBC), 0.5 µg/mL (≈ 1.51 µM); in series [5] (Streptococcus pyogenes, ATCC19615, Example 10, read-out: MBC), 0.5 µg/mL (≈ 1.51 µM); in series [7] (Pseudomonas aeruginosa, ATCC15442, Example 10, read-out: MBC), 0.5 µg/mL (≈ 1.51 µM); in series [17], over 0.1 µg/mL; in series [18], over 0.1 µg/mL. Also, the MBC in series [19], in [20], in [21] and in series [22] was over 0.1 µg/mL each time. For the same compound, the minimum inhibitory concentration (MIC) in [15] was over 0.1 µg/mL; in series [2] (Staphylococcus aureus, ATCC25923, Example 10), 0.5 µg/mL (≈ 1.51 µM); in [5] (Streptococcus pyogenes, ATCC19615, Example 10), 0.5 µg/mL (≈ 1.51 µM); in [16] (Escherichia coli, ATCC11229), at most 0.03 µg/mL; in series [7] (Pseudomonas aeruginosa, ATCC15442, Example 10) it was 0.12 µg/mL (≈ 0.362 µM); in series [8] (Staphylococcus epidermidis, ATCC12228), 0.25 µg/mL (≈ 0.754 µM). The MIC in series [17], in series [18], in [19], in series [20], in [21] and in series [22] was over 0.1 µg/mL in each case. The bactericidal activity entry in series [2] (setting [29]) and in series [8] (MBC within one doubling dilution of the MIC) was “bactericidal activity” each time. For the same compound, the “MCB” value in series [8] amounted to 0.25 µg/mL.
Consider `O=C(O)CN(CCN(CC(=O)O)CC(=O)O)CC(=O)O.[Zn]` [ZnEDTA, ethylenediaminotetraacetate zinc complex], for which the “MFC” value worked out at 13000 µg/mL in [23], 1500 µg/mL in [25] (99.9% inhibition of growth), 6000 µg/mL in series [11] (Example 11) and 3000 µg/mL in [12] (setting [28]). Also, the “MFC, %” value in series [23] amounted to 1.3%; in [25] (99.9% inhibition of growth) it was 0.15%; in series [11] (Example 11), 0.6%; in series [12] (setting [28]), 0.3%. Moreover, the “MIC, %” value in series [23] (setting [30]) came out at 0.08%; in series [2] (setting [27]), 1.3%; in [25] (setting [30]) it was 0.15%; in series [5] (setting [27]) it was 1.3%; in series [16] (% as g/100 ml or ml/100 ml), 2%; in [7] (setting [27]), 2%. Also, the “MIC, %” value in series [8] (% as g/100 ml or ml/100 ml) is 1.3%; in series [11] (Example 11, 80% reduction in growth endpoint), 0.04%; in series [12] (Example 10, 80% reduction in growth endpoint), 0.08%. For the same compound, the “MIC” value in series [23] (80% reduction in growth, amphotericin B complete inhibition, terbinafine 50%/90%) was 800 µg/mL; in series [25] (80% reduction in growth, amphotericin B complete inhibition), 1500 µg/mL; in [11] (Example 11, 80% reduction in growth, amphotericin B complete inhibition), 400 µg/mL; in [12] (Example 10, 80% reduction in growth, amphotericin B complete inhibition) it was 800 µg/mL. Besides, the figures for the “MBC (μg/ml)” value in [2] (Example 10) and in series [5] (Example 10) were “(>25000) μg/ml” and “(13000) μg/ml”, respectively. The “MBC, %” value in series [2] (setting [27]) is reported as over 2.5%; in series [5] (setting [27]), 1.3%; in [7] (setting [27]), 8%. For the same compound, the “Death time of test-microorganisms (min) E. coli” value in series [24] (Conc. 0.1 %) and in series [24] (Conc. 5.0 %) was over 30 min in each case. Further, the fungicidal activity result in series [25] (MFC within 1 doubling dilution of the MIC) is “Fungal activity”; in series [11] (Example 11, MFC within 1 doubling dilution of the MIC), “did not demonstrate fungicidal activity”; in series [12] (Example 10, MFC within 1 doubling dilution of the MIC), “did not demonstrate fungicidal activity”. Further, the “Death time of test-microorganisms (min) S. aureus” value in [26] (Conc. 0.1 %) and in [26] (Conc. 5.0 %) was over 30 min each time. Moreover, in series [7] (Example 10), the “MBC” value is 80000 µg/mL. Besides, the bactericidal activity entry in series [7] (setting [29]) is “did not meet the definition of bactericidal”. Further, the “MCB (μg/ml)” value in series [8] is “(>25000) μg/ml”. The “MCB, %” value in series [8] (% as g/100 ml or ml/100 ml) is recorded as over 2.5%. Also, the “reduction of S. aureus count” value in series [14] is on record as “ineffective”.

By LD50 is commonly meant the dose at which mortality reaches 50%. For orientation: LC50 means the concentration that kills 50% of the test population. The term MIC denotes the smallest concentration in the dilution series that meets the test's criterion for growth inhibition. A lower MIC goes with a more susceptible organism.
